We go through 1 molecule from patent publication US20250017889A1, “INHIBITORS OF P1B-TYPE ATPASES” (THE CURATORS OF THE UNIVERSITY OF MISSOURI, priority 2021, published 2025).

In one data set the target is T1, ATP7B (hATP7B) (Homo sapiens, UniProt P35670).
T1 construct: expressed in transfected cells; host or cells: B16 melanoma ATP7A^KO cells (mouse), transient transfection
T1 sequence (P35670 1-1465): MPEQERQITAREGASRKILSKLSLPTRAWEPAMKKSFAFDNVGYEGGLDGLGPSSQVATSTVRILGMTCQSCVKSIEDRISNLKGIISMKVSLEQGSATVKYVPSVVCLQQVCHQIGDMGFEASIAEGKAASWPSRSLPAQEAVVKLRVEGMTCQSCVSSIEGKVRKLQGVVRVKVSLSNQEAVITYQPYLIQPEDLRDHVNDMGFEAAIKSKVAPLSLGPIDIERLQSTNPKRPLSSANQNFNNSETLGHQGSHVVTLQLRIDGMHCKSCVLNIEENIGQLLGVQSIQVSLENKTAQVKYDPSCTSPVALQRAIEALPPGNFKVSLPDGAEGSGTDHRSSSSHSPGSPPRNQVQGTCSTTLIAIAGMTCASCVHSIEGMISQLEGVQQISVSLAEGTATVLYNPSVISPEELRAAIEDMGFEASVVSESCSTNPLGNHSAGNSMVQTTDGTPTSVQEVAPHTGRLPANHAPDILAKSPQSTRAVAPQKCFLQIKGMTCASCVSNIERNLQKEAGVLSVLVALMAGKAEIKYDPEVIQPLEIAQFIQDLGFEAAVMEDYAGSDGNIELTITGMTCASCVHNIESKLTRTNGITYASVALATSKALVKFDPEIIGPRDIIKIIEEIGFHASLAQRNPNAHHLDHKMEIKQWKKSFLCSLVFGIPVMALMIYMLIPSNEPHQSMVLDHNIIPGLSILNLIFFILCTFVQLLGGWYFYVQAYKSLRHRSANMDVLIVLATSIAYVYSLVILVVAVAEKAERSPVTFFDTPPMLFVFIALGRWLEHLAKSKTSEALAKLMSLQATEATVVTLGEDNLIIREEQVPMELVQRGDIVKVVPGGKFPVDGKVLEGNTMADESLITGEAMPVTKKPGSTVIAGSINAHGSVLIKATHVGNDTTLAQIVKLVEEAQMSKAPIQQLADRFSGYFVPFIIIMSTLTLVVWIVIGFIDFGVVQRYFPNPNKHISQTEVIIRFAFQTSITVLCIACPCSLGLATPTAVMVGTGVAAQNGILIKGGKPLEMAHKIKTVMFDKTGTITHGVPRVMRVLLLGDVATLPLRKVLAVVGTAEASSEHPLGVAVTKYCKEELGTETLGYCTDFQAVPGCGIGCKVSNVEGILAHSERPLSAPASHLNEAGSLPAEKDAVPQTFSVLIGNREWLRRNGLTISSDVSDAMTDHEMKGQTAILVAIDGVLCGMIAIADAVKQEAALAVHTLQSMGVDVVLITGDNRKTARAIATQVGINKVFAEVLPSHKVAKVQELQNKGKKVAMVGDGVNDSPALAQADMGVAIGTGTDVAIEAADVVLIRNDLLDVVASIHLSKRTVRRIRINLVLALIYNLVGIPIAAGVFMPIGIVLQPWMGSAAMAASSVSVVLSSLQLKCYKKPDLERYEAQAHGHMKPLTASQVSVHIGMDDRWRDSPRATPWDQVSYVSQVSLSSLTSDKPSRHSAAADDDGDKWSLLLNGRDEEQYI
Briefly: Tyrosinase activation in B16 ATP7A^KO cells transfected with human ATP7B. It is filed as cell-based. To be noted: 10 μM, 24 h, ATP7A^KO melanoma cells. An excerpt: Prior studies have shown that exogenously expressed ATP7B can activate tyrosinase in cells lacking ATP7A. For these studies, a B16 melanoma cell model was used in which tyrosinase activity can be detected by in situ oxidation of L-DOPA to DOPAchrome (10A). As shown earlier, B16 cells deleted for the ATP7A gene (ATP7A^KO) completely lack tyrosinase activity (10B). […] Quantification of tyrosinase activity in these cells is shown (10G). Data represent mean±SEM; ****p<0.0001 of three independent replicates.

Data set [1] has as its system wild type S. aureus (CopA and CopB). Description: Growth of wild type methicillin-resistant Staphylococcus aureus. It counts as cell-based. Here is the method: Methicillin-resistant Staphylococcus aureus (MRSA) is a human pathogen that expresses two Cu-transporting P1B-type ATPases, CopA and CopB, which are known to enhance the virulence of this bacterium. 19A illustrates CopA and CopB copper exporters at the plasma membrane of S. aureus. […] The growth of the ΔcopA/ΔcopB strain was inhibited by approximately 50% when copper alone (50 μM) was added to the culture medium.
Wild type MRSA expresses two copper-exporting P1B-type ATPases, CopA and CopB that are required for copper tolerance (FIG. 19A). […] The same experiment was performed using MRSA in which both CopA and CopB genes were deleted (ΔcopA/ΔcopB). Consistent with the known role of CopA and CopB in copper tolerance, the growth of the ΔcopA/ΔcopB strain was inhibited by approximately 50% when copper alone (50 μM) was added to the culture medium (FIG. 19C).

The subject of another data set is GFP alone. Briefly: Microscale thermophoresis (MST), GFP alone as negative control. It is filed as binding. An excerpt: Coordinating residues D935 and E798 are predicted to bind copper during transport.
(In general: Microscale thermophoresis detects binding through changes in fluorescence in a small temperature gradient.)

Data set [2] deals with 4T1, B16 and HEK293 cell lines. Briefly: Cellular copper concentrations by ICP-MS. It is filed as cell-based. To be noted: 10 μM, 24 hours. How it is done:
Since ATP7A functions in copper export from cells, an inhibitor of ATP7A activity would be expected to increase cellular copper concentrations. […] After 24 hours, cellular copper concentrations were measured using inductively coupled plasma mass spectroscopy (ICP-MS).

Data set [3] is described as follows: Cytotoxicity in B16 cells by MTT and crystal violet assays. To be noted: mouse. It counts as cell-based. The text has this: This is consistent with lower affinity of MKV1 for ATP7A (FIG. 6E).

SMILES strings stand for the structures.

The term CC50 denotes the concentration at which the toxic effect on the cells reaches its halfway point. Lower therefore signals greater toxicity to the cells. `N#CC(C(=O)Nc1cccc(C(F)(F)F)c1)C(=S)Nc1ccccc1Cl` (stereo not shown) [MKV3]: the “activation of tyrosinase activity by ATP7B” value on ATP7B (hATP7B) is listed as “prevented activation of tyrosinase activity”. Besides, the “sensitivity of wild type S. aureus to silver” value in data set [1] is reported as “increases the sensitivity”. Besides, the “growth of wild type S. aureus” value in data set [1] (MKV3 0.5 μM alone) is given as “not affected”; in data set [1] (MKV3 0.5 μM and copper 50 μM in combination) it was “significant inhibition of growth”. The “binding to GFP alone” value with GFP alone is “not to GFP alone”. In data set [2], the cellular copper concentrations result is “significantly increased”. For the same molecule, the CC50 in data set [3] is roughly 75 µM.
